Measured values published in patent US11730817B2, “Pro-cyclic dinucleotides and pro-cyclic dinucleotide conjugates for cytokine induction” (INVIVOGEN, priority 2017, dated 2023).
Entries after “also recorded” stand apart in the source; their conditions may differ. One block for each compound: values may come before it.

Key:
Type I IFNs = test: Whole-blood assay, type I IFN induction (HEK-Blue IFN-α/β-KO-STING readout); type: cell-based, human; conditions: for induction of type I IFNs in whole-blood assay (comparison in words): healthy human donors, dose-response; for EC50: whole blood assay, type I IFN, read-out: EC50 (μM) IFN in WBA
Text: Type I IFNs: HEK-Blue™ IFN-α/β-KO-STING: These cells, in which the STING gene has been inactivated, are derived from HEK293 cell line known as HEK-Blue™ IFN-α/β (InvivoGen catalog code: hkb-ifnab). HEK-Blue™ IFN-α/β cells enable detection of bioactive human type I IFNs through monitoring of activation of the […]. These cells were generated by stable transfection of HEK293 cells with the human STAT2 and IRF9 genes to obtain a fully active Type-I IFN signaling pathway. The other genes of the pathway (IFNAR1, IFNAR2, JAK1, TyK2 and STAT1) are naturally expressed in sufficient amounts. The cells were further transfected with a SEAP reporter gene under control of an IFNα/β-inducible ISG54 promoter. This promoter comprises five IFN-stimulated response elements (ISREs) fused to a minimal promoter of the human ISG54 gene, which is unresponsive to activators of the NF-κB or AP-1 pathways. Stimulation of HEK-Blue™ IFN-α/β cells with human IFN-α or IFN-β activates the JAK/STAT/ISGF3 pathway and subsequently induces production of SEAP. Production of type I IFNs in these cells is measured using QUANTI-Blue™.
Briefly, the samples were collected by venipuncture into sodium heparin tubes at the time of donation. The samples were analyzed for rhesus (Rh), blood group, hematocrit and serological status (AgHBS, HIV, HCV, HTLV, HBC, CMV, Syph). The tubes were picked up on the day of collection and subsequently tested (blood analysis, and treatment with test items) on the same day.
Each blood sample was diluted (1:2 [v/v]) in RPMI medium and aliquoted into 96-well plates (180-μL wells) containing either CDN (√10-fold serial dilution starting from 50 μM). The plates were incubated at 37° C. in a 5% CO2 incubator for 18 hours. Then, the supernatants were collected, transferred into the corresponding wells of round-bottom 96-well plates, and either stored at −80° C., or immediately tested in the appropriate reporter cell line.
A new 96-wells plate was prepared for each reporter cell lines tested, as follows: 10 μL of supernatant from the previous plate were added to the corresponding well in the new reporter cell plate. Then, a 190-μL aliquot of cells of the desired reporter cell line, previously harvested in medium containing heat-inactivated serum and counted, was added to each well (approximately 50,000 cells/well), and the plate was incubated for approximately 20 hours. The desired cytokine induction activity was determined using the QUANTI-Blue™ assay, as previously described. Briefly, 20 μL of supernatant from the previously incubated plate was transferred to the corresponding well of a new 96-well plate in which 180 μL of QUANTI-Blue™ reagent had previously been added.

STING = STING (Homo sapiens, UniProt Q86WV6, G230A/H232R/R293Q/R71H); test: ISG54 (IRF pathway) reporter assay in THP1-Dual cells; conditions: for EC50 rank order (lipid chain length): FIG. 6, human or murine reporter cell
STING, sequence (Q86WV6 whole entry R71H/G230A/H232R/R293Q): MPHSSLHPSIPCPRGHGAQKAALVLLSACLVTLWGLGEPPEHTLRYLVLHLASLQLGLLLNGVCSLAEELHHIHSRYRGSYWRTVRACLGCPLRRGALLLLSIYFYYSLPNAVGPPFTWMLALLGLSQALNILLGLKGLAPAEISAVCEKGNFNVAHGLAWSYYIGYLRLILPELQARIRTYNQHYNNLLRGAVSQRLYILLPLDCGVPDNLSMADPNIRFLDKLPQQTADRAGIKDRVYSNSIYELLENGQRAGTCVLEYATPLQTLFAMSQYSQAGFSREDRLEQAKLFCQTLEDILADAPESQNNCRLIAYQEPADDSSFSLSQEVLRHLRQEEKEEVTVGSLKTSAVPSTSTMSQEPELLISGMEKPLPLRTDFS

[1] = Lipid-based nanoparticle formation (PdI, Z Ave); type: physicochemical; conditions: for Z Ave (nm): lipid BAM-CDN particles; for PdI: polydispersity index of lipid BAM-CDN

SMILES: Nc1ncnc2c1ncn2[C@@H]1O[C@@H]2COP(=O)(S)O[C@H]3C[C@H](n4cnc5c(=O)[nH]cnc54)O[C@@H]3COP(=O)(S)O[C@H]2[C@H]1F (some centres unmarked) [CL702, reference compound]
induction of type I IFNs in whole-blood assay (comparison in words) (Type I IFNs): superior induction of type I interferons compared to the reference compound 2′3′-cGAMP

SMILES: CC(C)[C@H](NC(=O)OC(C)(C)C)C(=O)N[C@@H](CCCNC(N)=O)C(=O)Nc1ccc(CSP2(=O)OC[C@H]3O[C@@H](n4cnc5c(=O)[nH]cnc54)C[C@@H]3OP(=O)(SCc3ccc(NC(=O)[C@H](CCCNC(N)=O)NC(=O)[C@@H](NC(=O)OC(C)(C)C)C(C)C)cc3)OC[C@H]3O[C@@H](n4cnc5c(N)ncnc54)[C@H](F)[C@@H]3O2)cc1 (some centres unmarked) [CL793]
induction of type I IFNs in whole-blood assay (comparison in words) (Type I IFNs): superior induction of type I interferons compared to the reference compound 2′3′-cGAMP

EC50 (STING): 8.15 µM | Fold ISG induction vs unstimulated @10 μM (STING; THP1-Dual cells): 181 fold
SMILES: Nc1ncnc2c1ncn2[C@@H]1O[C@@H]2COP(=O)(S)O[C@H]3C[C@H](n4cnc5c(=O)[nH]cnc54)O[C@@H]3COP(=O)(O)O[C@H]2[C@H]1F (some centres unmarked) [CL797, reference compound]

SMILES: CC(C)[C@H](N)C(=O)N[C@@H](C)C(=O)Nc1ccc(CSP2(=O)OC[C@H]3O[C@@H](n4cnc5c(N)ncnc54)[C@H](F)[C@@H]3OP(=O)(O)OC[C@H]3O[C@@H](n4cnc5c(O)ncnc54)C[C@@H]3O2)cc1 (some centres unmarked) [CL819]
EC50 rank order (lipid chain length) (STING): EC50 (CL819=C2-CL797)=EC50 (CL797)

SMILES: CCCC(=O)N[C@H](C(=O)N[C@@H](C)C(=O)Nc1ccc(CSP2(=O)OC[C@H]3O[C@@H](n4cnc5c(N)ncnc54)[C@H](F)[C@@H]3OP(=O)(O)OC[C@H]3O[C@@H](n4cnc5c(O)ncnc54)C[C@@H]3O2)cc1)C(C)C (some centres unmarked) [CL820]
EC50 rank order (lipid chain length) (STING): EC50 (CL820=C4-CL797)=EC50 (CL819=C2-CL797)=EC50 (CL797)

SMILES: CCCCCCCC(=O)N[C@H](C(=O)N[C@@H](C)C(=O)Nc1ccc(CSP2(=O)OC[C@H]3O[C@@H](n4cnc5c(N)ncnc54)[C@H](F)[C@@H]3OP(=O)(O)OC[C@H]3O[C@@H](n4cnc5c(O)ncnc54)C[C@@H]3O2)cc1)C(C)C (some centres unmarked) [CL821]
EC50 (Type I IFNs): 7.1 µM | Z Ave (nm) [1]: 54.9 nm | PdI [1]: 0.27 | EC50 rank order (lipid chain length) (STING): EC50 (CL821=C8-CL797)<EC50 (CL820=C4-CL797)

SMILES: CC(C)[C@H](NC(=O)COCCOCCNC(=O)COCCOCCNC(=O)COCCOCCNC(=O)COCCOCCN)C(=O)N[C@H](C)C(=O)Nc1ccc(CSP2(=O)OC[C@H]3O[C@@H](n4cnc5c(N)ncnc54)[C@H](F)[C@@H]3OP(=O)(O)OC[C@H]3O[C@@H](n4cnc5c(O)ncnc54)C[C@@H]3O2)cc1 (some centres unmarked) [CL822]
Fold ISG induction vs unstimulated @10 μM (STING; THP1-Dual cells): 29 fold

SMILES: COC(=O)C1O[C@@H](Oc2ccc(CSP3(=O)OC[C@H]4O[C@@H](n5cnc6c(N)ncnc65)[C@H](F)[C@@H]4OP(=O)(O)OC[C@H]4O[C@@H](n5cnc6c(O)ncnc65)C[C@@H]4O3)cc2[N+](=O)[O-])C(OC(C)=O)C(OC(C)=O)[C@@H]1OC(C)=O (some centres unmarked) [CL831]
Fold ISG induction vs unstimulated @10 μM (STING; THP1-Dual cells): 6 fold

SMILES: CCCCCCCCCCCCCC(=O)OC(CCCCCCCCCCC)CC(=O)N[C@H](C(=O)N[C@@H](C)C(=O)Nc1ccc(CSP2(=O)OC[C@H]3O[C@@H](n4cnc5c(N)ncnc54)[C@H](F)[C@@H]3OP(=O)(O)OC[C@H]3O[C@@H](n4cnc5c(O)ncnc54)C[C@@H]3O2)cc1)C(C)C (some centres unmarked) [CL838]
EC50 (Type I IFNs): 0.009 µM | self-organization in lipid-based nanoparticles / particle size [1]: can self-organize/assemble in lipid-based nanoparticles | Z Ave (nm) [1]: 91 nm | PdI [1]: 0.214

SMILES: CCCCCCCC(=O)N[C@H](C(=O)N[C@@H](C)C(=O)Nc1ccc(CSP2(=O)OC[C@H]3O[C@@H](n4cnc5c(N)ncnc54)[C@H](F)[C@@H]3OP(=O)(S)OC[C@H]3O[C@@H](n4cnc5c(O)ncnc54)[C@H](F)[C@@H]3O2)cc1)C(C)C (some centres unmarked) [CL840]
EC50 (Type I IFNs): 0.13 µM | Z Ave (nm) [1]: 168.9 nm | PdI [1]: 0.08

SMILES: CCCCCCCC(=O)N[C@H](C(=O)N[C@@H](C)C(=O)Nc1ccc(CSP2(=O)OC[C@H]3O[C@@H](n4cnc5c(N)ncnc54)[C@H](F)[C@@H]3OP(=O)(O)OC[C@H]3O[C@@H](n4cnc5c(O)ncnc54)[C@H](F)[C@@H]3O2)cc1)C(C)C (some centres unmarked) [CL841]
EC50 (Type I IFNs): 3.03 µM | Z Ave (nm) [1]: 264.3 nm | PdI [1]: 0.475

SMILES: CCCCCCCC(=O)N[C@H](C(=O)N[C@@H](C)C(=O)Nc1ccc(CSP2(=O)OC[C@H]3O[C@@H](n4cnc5c(O)ncnc54)[C@H](F)[C@@H]3OP(=O)(SCc3ccc(NC(=O)[C@H](C)NC(=O)[C@@H](NC(=O)CCCCCCC)C(C)C)cc3)OC[C@H]3O[C@@H](n4cnc5c(N)ncnc54)[C@H](F)[C@@H]3O2)cc1)C(C)C (some centres unmarked) [CL842]
EC50 (Type I IFNs): 1.4 µM | self-organization in lipid-based nanoparticles / particle size [1]: can self-organize/assemble in lipid-based nanoparticles | Z Ave (nm) [1]: 184 nm | PdI [1]: 0.086

SMILES: CC(C)[C@H](NC(=O)CCCCCN1C(=O)C=CC1=O)C(=O)N[C@@H](C)C(=O)Nc1ccc(CSP2(=O)OC[C@H]3O[C@@H](n4cnc5c(N)ncnc54)[C@H](F)[C@@H]3OP(=O)(O)OC[C@H]3O[C@@H](n4cnc5c(O)ncnc54)C[C@@H]3O2)cc1 (some centres unmarked) [CL843]
Fold ISG induction vs unstimulated @10 μM (STING; THP1-Dual cells): 16 fold

EC50 (STING): 4.57 µM | Fold ISG induction vs unstimulated @10 μM (STING; THP1-Dual cells): 227 fold
SMILES: Nc1ncnc2c1ncn2[C@@H]1OC2COP(=O)(S)O[C@@H]3C(COP(=O)(O)O[C@H]2[C@H]1F)O[C@@H](n1cnc2c(=O)[nH]cnc21)[C@@H]3F (some centres unmarked) [CL845, reference compound]

SMILES: COC(=O)C1O[C@@H](Oc2ccc(CSP3(=O)OC[C@H]4O[C@@H](n5cnc6c(=O)[nH]cnc65)[C@H](F)[C@@H]4OP(=O)(O)OC[C@H]4O[C@@H](n5cnc6c(N)ncnc65)[C@H](F)[C@@H]4O3)cc2NC(=O)CCCCCN2C(=O)C=CC2=O)C(OC(C)=O)C(OC(C)=O)[C@@H]1OC(C)=O (some centres unmarked) [CL847]
Fold ISG induction vs unstimulated @10 μM (STING; THP1-Dual cells): 132 fold

SMILES: CCCCCCCCCCCCCC(=O)OC(CCCCCCCCCCC)CC(=O)N[C@H](C(=O)N[C@@H](CCCNC(N)=O)C(=O)Nc1ccc(CSP2(=O)OC[C@H]3O[C@@H](n4cnc5c(N)ncnc54)[C@H](F)[C@@H]3OP(=O)(O)OC[C@H]3O[C@@H](n4cnc5c(O)ncnc54)[C@H](F)[C@@H]3O2)cc1)C(C)C (some centres unmarked) [CL860]
EC50 (Type I IFNs): 0.009 µM | self-organization in lipid-based nanoparticles / particle size [1]: can self-organize/assemble in lipid-based nanoparticles; also recorded: the size tends to be smaller, around the size of Small Unilamellar Vesicle | Z Ave (nm) [1]: 33 nm | PdI [1]: 0.248

SMILES: CCCCCCCCCCCCCC(=O)OC(CCCCCCCCCCC)CC(=O)N[C@H](C(=O)N[C@@H](CCCNC(N)=O)C(=O)Nc1ccc(CSP2(=O)OC[C@H]3O[C@@H](n4cnc5c(N)ncnc54)[C@H](F)[C@@H]3OP(=O)(S)OC[C@H]3O[C@@H](n4cnc5c(O)ncnc54)[C@H](F)[C@@H]3O2)cc1)C(C)C (some centres unmarked) [CL861]
EC50 (Type I IFNs): 0.01 µM | self-organization in lipid-based nanoparticles / particle size [1]: can self-organize/assemble in lipid-based nanoparticles; also recorded: the size tends to be smaller, around the size of Small Unilamellar Vesicle | Z Ave (nm) [1]: 36.8 nm | PdI [1]: 0.183

SMILES: CC(C)[C@H](NC(=O)[C@@H](CN)N1C(=O)C=CC1=O)C(=O)N[C@@H](C)C(=O)Nc1ccc(CSP2(=O)OC[C@H]3O[C@@H](n4cnc5c(N)ncnc54)[C@H](F)[C@@H]3OP(=O)(S)OC[C@H]3O[C@@H](n4cnc5c(O)ncnc54)[C@H](F)[C@@H]3O2)cc1 (some centres unmarked) [CL874]
% activity (vs cGAMP) (STING): 297% | Fold ISG induction vs unstimulated @10 μM (STING; THP1-Dual cells): 156 fold | ISG activity (STING; THP1-Dual cells): retains full 15G activity
